According to patent publication US20220024921A1, “1,3,4-OXADIAZOLONE COMPOUND AND PHARMACEUTICAL” (NIPPON SHINYAKU CO., LTD., priority 2018, published 2022):
Counter-ions that a name gives are not always drawn.

Tests used:
[1] = target: T1, PIM1 serine/threonine kinase (Homo sapiens, UniProt P11309); test: PIM1 serine/threonine kinase inhibitory effect; type: biochemical; details: PIM1 serine/threonine kinase activity; ATP 40 μM; 30° C., 30 minutes
T1 construct: purchased Carna Bioscience, Inc
Procedure, shortened: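 Recombinant PIM1 (0.15 μg/ml final) with 0.5 μM biotinylated substrate and 40 μM ATP in pH 7.0 HEPES/MgCl2 buffer, 30 min at 30° C. Compound range was 0.01–10000 nM final, n=2. HTRF detection with streptavidin-XL665 and anti-phospho antibody-cryptate, 1 h; IC50 from non-linear regression of the 665/620 ratio.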

[2] = test system: graft-versus-host disease model CB6F1 mice; test: Lymphocyte proliferation inhibitory effect using graft-versus-host disease model animals (splenomegaly formation); type: in vivo; details: Mus musculus, 240 h, oral, twice a day for 10 days, GVHD model CB6F1 mice, read-out: Inhibition rate (%) (splenomegaly formation); for inhibition in vivo at 3 mg/kg: single dose 3 mg/kg; for inhibition in vivo at 10 mg/kg: single dose 10 mg/kg
Experimental: BALB/c mice (8-week-aged female) were euthanized, and then the spleen was removed from each mouse. Then, hemolysis treatment was performed to isolate spleen cells. The obtained spleen cells were intravenously transplanted into CB6F1 mice (8-week-aged female), which are C57BL/6 and BALB/c F1 mice, to prepare a model, and splenomegaly was induced. For transplantation, spleen cells for 1.2 BALB/c mouse were used for one CB6F1 mouse.
Each test substance shown in Table 64 was weighed and dissolved in a 0.5% methyl cellulose solution, thereby preparing test substance solutions of 0.3 to 10 mg/mL.
A vehicle (0.5% methyl cellulose solution) or test substance was orally administered to each CB6F1 mouse after transplantation at a dose of 3 to 50 mg/kg in terms of body weight twice a day for 10 days from the day after transplantation. The mouse was euthanized on the 11th day from the start of administration, then the spleen was removed therefrom, and the wet weight of the spleen was measured. For each of CB6F1 mice that had not undergone transplantation as a control group, the wet weight of the spleen was also measured.
The splenomegaly formation inhibition rate when the spleen weights of the mice to which the vehicle was administered after transplantation and the mice on which transplantation had not been performed were 0% and 100%, respectively, was calculated.

[3] = target: PIM1 transgenic cells (Ba/F3) (Homo sapiens, UniProt P11309); test: Proliferation inhibitory effect on PIM1 transgenic cells; type: cell-based, mouse; details: proliferation inhibition, 72 hours, Cell Counting Kit-8, read-out: PIM1 IC50
Procedure, shortened: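 Mouse Ba/F3 pro-B cells were retrovirally transduced with human PIM1 so that their proliferation depends on PIM1. Cells were treated with compound at 1–10000 nM final for 72 h, then read by CCK-8 (OD450−OD650). Inhibition was set against DMSO (0%) and no-cell blank (100%), and IC50 was obtained by two-parameter logistic regression.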

[4] = target: PIM2 transgenic cells (Ba/F3) (Homo sapiens, UniProt Q9P1W9); test: Proliferation inhibitory effect on PIM2 transgenic cells; type: cell-based, mouse; details: proliferation inhibition, 72 hours, Cell Counting Kit-8, read-out: PIM2 IC50
Description: (§1) Human PIM1, 2, and 3 genes were inserted into the multi-cloning sites of retrovirus expression vectors pMYs-IRES-GFP, respectively, to prepare gene transfer vectors. Then, each gene transfer vector was introduced into packaging cells PLAT-E derived from a human fetal kidney cell line in the logarithmic growth phase, using a transfection reagent (FuGENE6, Promega Corporation). Since the culture supernatant of PLAT-E after gene transfer contained virus particles for gene transfer, the culture supernatant was collected and used as a medium for gene transfer. The medium for gene transfer was added to a plate coated with RetroNectin, and the plate was incubated to attach the virus particles to the plate. Then, a mouse pro-B cell line Ba/F3 in the logarithmic growth phase was seeded on the plate and infected with the virus to prepare PIM1, 2, or 3 transgenic cells that proliferate in a PIM 1, 2, or 3-dependent manner. The expression of PIM1, 2, or 3 protein in each cell was confirmed by Western blotting.
(§2) Each test substance was prepared to 10 mM with dimethylsulfoxide (DMSO), and diluted with DMSO so as to have concentrations of 3000, 1000, 300, 100, 30, 10, 3, and 1 μM. Moreover, each dilution was further diluted 10-fold with distilled water to prepare a test substance solution.
(§3) PIM1, 2, 3-expressing cells were seeded on a 96-well plate, and each test substance solution prepared the next day was added such that final concentrations were 10000, 3000, 1000, 300, 100, 30, 10, 3, and 1 nM. 72 hours after the addition, 10 μL of Cell Counting Kit-8 (DOJINDO LABORATORIES) was added to each well. After incubation for 1 to 4 hours, absorbance OD450 at 450 nm was measured. In addition, absorption OD650 at 650 nm as a reference wavelength was measured.
(§4) OD450-OD650 for each condition was calculated, and then the inhibition rates when OD450-OD650 of negative control (DMSO only) and OD450-OD650 of Blank (without cells) were set to 0% and 100%, respectively, were calculated. Then, non-linear regression analysis was performed for logarithmic dose and inhibition rate using a two-parameter logistic model to estimate IC50 values.
(§5) For the compounds with the following Example numbers, in addition to the above proliferation inhibitory effect on PIM1 transgenic cells, the proliferation inhibitory effect on PIM2 transgenic cells and the proliferation inhibitory effect on PIM3 transgenic cells were calculated as IC50.

[5] = target: PIM3 transgenic cells (Ba/F3) (Homo sapiens, UniProt Q86V86); test: Proliferation inhibitory effect on PIM3 transgenic cells; type: cell-based, mouse; details: proliferation inhibition, 72 hours, Cell Counting Kit-8, read-out: PIM3 IC50
Description: as §1, §2, §3, §4, §5

[6] = test system: graft-versus-host disease model CB6F1 mice; test: Lymphocyte proliferation inhibitory effect using graft-versus-host disease model animals (splenomegaly formation); type: in vivo; details: Mus musculus, 240 h, single dose 100 mg/kg, oral, twice a day for 10 days, GVHD model CB6F1 mice, read-out: Inhibition rate (%) (splenomegaly formation)
[7] = target: T2, PIM3 serine/threonine kinase (Homo sapiens, UniProt Q86V86); test: PIM3 serine/threonine kinase inhibitory effect; type: biochemical; details: PIM3 serine/threonine kinase activity; ATP 10 μM; 30° C., 30 minutes
T2 construct: purchased Carna Bioscience, Inc
Experimental: (§6) Each test substance was prepared to 10 mM with dimethylsulfoxide (DMSO), and further diluted with DMSO so as to have concentrations of 1000, 300, 100, 30, 10, 3, 1, 0.3, 0.1, 0.03, 0.01, and 0.001 μM. Moreover, each dilution was further diluted 33.3-fold with an assay buffer to prepare a test substance solution. The composition of the assay buffer was 50 mM HEPES (pH 7.0), 0.02% NaN3, 0.01% Bovine Serum Albumin, 0.1 mM Orthovanadate, 1 mM Dithiothreitol, and 5 mM MgCl2.
(§7) 5 μL of each test substance solution was added to 384-well plates (n=2), and then 2.5 μL of a substrate solution (substrate 3-biotin (Cisbio Bioassays SAS), final concentration in the reaction solution: 0.5 μM) and 2.5 μL of an ATP solution (in the cases of PIM1, 2, 3, the final concentrations in the reaction solutions were 40, 2, and 10 μM, respectively) were added, 5 μL of each of PIM1, 2, 3 serine/threonine kinase solutions (Carna Bioscience, Inc., the final concentrations in the reaction solutions were 0.15, 1.6, and 0.25 μg/ml, respectively) was finally added, and the mixture was reacted at 30° C. for 30 minutes. The test substance concentrations in the reaction solutions are 10000, 3000, 1000, 300, 100, 30, 10, 3, 1, 0.3, 0.1, and 0.01 nM.
(§8) Thereafter, 15 μL of each detection solution (62.5 nM Streptavidin-XL665 (Cisbio Bioassays SAS), […] STK antibody-Cryptate (Cisbio Bioassays SAS), 50 mM HEPES (pH 7.0), 0.8 M KF, 0.1% Bovine Serum Albumin, 20 mM ethylenediaminetetraacetic acid) was added to each well. After stirring, the mixture was reacted at 30° C. for 1 hour. Absorbance (OD620, OD665) at 620 and 665 nm was measured with a microplate reader (SpectraMax M5e, Molecular Devices, LLC).
(§9) Non-linear regression analysis was performed by an SAS system (SAS Institute Inc.) using the ratio (OD665/OD620) of the measured absorbance to calculate a test substance concentration (IC50) that inhibits PIM1 serine/threonine kinase activity by 50%.
(§10) For the compounds with the following Example numbers, in addition to the above PIM1 serine/threonine kinase activity (IC50), test substance concentrations (IC50) that inhibit PIM2 serine/threonine kinase activity and PIM3 serine/threonine kinase activity by 50% were calculated.

[8] = target: T3, PIM2 serine/threonine kinase (Homo sapiens, UniProt Q9P1W9); test: PIM2 serine/threonine kinase inhibitory effect; type: biochemical; details: PIM2 serine/threonine kinase activity; ATP 2 μM; 30° C., 30 minutes
T3 construct: purchased Carna Bioscience, Inc
Experimental: as §6, §7, §8, §9, §10

T1 sequence (P11309 whole entry): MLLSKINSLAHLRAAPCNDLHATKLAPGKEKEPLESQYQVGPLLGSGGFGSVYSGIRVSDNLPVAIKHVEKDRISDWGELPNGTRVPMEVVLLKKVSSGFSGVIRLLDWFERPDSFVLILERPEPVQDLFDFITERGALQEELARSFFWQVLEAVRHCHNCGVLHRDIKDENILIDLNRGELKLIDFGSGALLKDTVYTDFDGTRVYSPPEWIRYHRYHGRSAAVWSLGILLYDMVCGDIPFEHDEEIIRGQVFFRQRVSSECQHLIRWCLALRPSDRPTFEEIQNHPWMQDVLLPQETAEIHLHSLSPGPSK
Chain of PIM1 transgenic cells (Ba/F3) (P11309 whole entry, stated change not applied): as the sequence (P11309 whole entry) above
Chain of PIM2 transgenic cells (Ba/F3) (Q9P1W9 whole entry, stated change not applied): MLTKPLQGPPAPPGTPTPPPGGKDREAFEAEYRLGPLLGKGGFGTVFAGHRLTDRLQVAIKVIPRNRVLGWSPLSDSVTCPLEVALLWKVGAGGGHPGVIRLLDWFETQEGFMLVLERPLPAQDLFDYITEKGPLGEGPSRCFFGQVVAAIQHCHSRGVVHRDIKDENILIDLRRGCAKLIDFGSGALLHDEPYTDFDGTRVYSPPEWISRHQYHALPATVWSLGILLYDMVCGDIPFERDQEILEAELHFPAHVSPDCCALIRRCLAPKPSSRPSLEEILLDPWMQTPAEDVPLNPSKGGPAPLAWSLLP
T3 sequence (Q9P1W9 whole entry): as the sequence (Q9P1W9 whole entry, stated change not applied) above

| Structure (SMILES) | IC50 [1] | GI50 [3] | GI50 [4] | GI50 [5] | IC50 [7] | IC50 [8] | inhibition in vivo at 3 mg/kg [2] | inhibition in vivo at 10 mg/kg [2] | inhibition in vivo at 100 mg/kg [6] | inhibition in vivo at 25 mg/kg ([2]; single dose 25 mg/kg) | inhibition in vivo at 50 mg/kg ([2]; single dose 50 mg/kg) |
| --- | --- | --- | --- | --- | --- | --- | --- | --- | --- | --- | --- |
| CC[C@@H]1CNCC[C@@H]1[C@H](C)Nc1cc(-c2n[nH]c(=O)o2)cc(F)c1C(F)(F)F [Example 225, 5-[3-({(1S)-1-[(3S,4S)-3-ethylpiperidin-4-yl]ethyl}amino)-5-fluoro-4-(trifluoromethyl)phenyl]-1,3,4-oxadiazol-2(3H)-one] | 1.1 nM | 7.6 nM | 390 nM | 51 nM |  |  | 18.9% | 32.3% |  |  |  |
| C[C@H](Nc1cc(-c2n[nH]c(=O)o2)cc(F)c1OC(F)(F)F)[C@H]1CCNC[C@H]1F [Example 224, 5-[3-fluoro-5-({(1S)-1-[(3S,4R)-3-fluoropiperidin-4-yl]ethyl}amino)-4-(trifluoromethoxy)phenyl]-1,3,4-oxadiazol-2(3H)-one] | 0.8 nM | 7.1 nM | 510 nM | 35 nM |  |  | 22.8% | 39.1% |  |  |  |

Continued by falling IC50 [1], values first:

| IC50 [1] | GI50 [3] | GI50 [4] | GI50 [5] | IC50 [7] | IC50 [8] | Structure (SMILES) | inhibition in vivo at 3 mg/kg [2] | inhibition in vivo at 10 mg/kg [2] | inhibition in vivo at 100 mg/kg [6] | inhibition in vivo at 25 mg/kg ([2]; single dose 25 mg/kg) | inhibition in vivo at 50 mg/kg ([2]; single dose 50 mg/kg) |
| --- | --- | --- | --- | --- | --- | --- | --- | --- | --- | --- | --- |
| 2 nM | 33 nM | 3600 nM | 570 nM | 16 nM | 18 nM | C[C@H](Nc1cc(-c2n[nH]c(=O)o2)ccc1C(F)(F)F)C1CCNCC1 [Example 58, 5-[3-{[(1S)-1-(piperidin-4-yl)ethyl]amino}-4-(trifluoromethyl)phenyl]-1,3,4-oxadiazol-2(3H)-one hydrochloride] |  |  | 39.8% | 19% | 41.6% |
| 1.8 nM | 11 nM | 1100 nM | 40 nM |  |  | C[C@@H]1CNCC[C@@H]1[C@H](C)Nc1cc(-c2n[nH]c(=O)o2)cc(F)c1OC(F)(F)F [Example 219, 5-[3-fluoro-5-({(1S)-1-[(3S,4S)-3-methylpiperidin-4-yl]ethyl}amino)-4-(trifluoromethoxy)phenyl]-1,3,4-oxadiazol-2(3H)-one] | 27.7% | 33.8% |  |  |  |
| 1.6 nM | 11 nM | 290 nM | 59 nM |  |  | C[C@H](Nc1cc(-c2n[nH]c(=O)o2)cc(F)c1C(F)(F)F)[C@H]1CCNC[C@H]1F [Example 223, 5-[3-fluoro-5-({(1S)-1-[(3S,4R)-3-fluoropiperidin-4-yl]ethyl}amino)-4-(trifluoromethyl)phenyl]-1,3,4-oxadiazol-2(3H)-one hydrochloride] | 34.1% | 36.8% |  |  |  |
